# Tests used:
# [1] = target: T1, ProRS (amino acids 998-1513 of human EPRS) (Homo sapiens, UniProt P07814); assay: [3H]-HFol binding to immobilized ProRS; details: FIG. 3A
# T1 construct: Purified 6-his tagged ProRS (amino acids 998-1513 of human EPRS) was immobilized on N-NTA beads; made in house; host or cells: E. coli BL21(DE3), plasmid pKS509
# T1 sequence (P07814 998-1512 limits assumed): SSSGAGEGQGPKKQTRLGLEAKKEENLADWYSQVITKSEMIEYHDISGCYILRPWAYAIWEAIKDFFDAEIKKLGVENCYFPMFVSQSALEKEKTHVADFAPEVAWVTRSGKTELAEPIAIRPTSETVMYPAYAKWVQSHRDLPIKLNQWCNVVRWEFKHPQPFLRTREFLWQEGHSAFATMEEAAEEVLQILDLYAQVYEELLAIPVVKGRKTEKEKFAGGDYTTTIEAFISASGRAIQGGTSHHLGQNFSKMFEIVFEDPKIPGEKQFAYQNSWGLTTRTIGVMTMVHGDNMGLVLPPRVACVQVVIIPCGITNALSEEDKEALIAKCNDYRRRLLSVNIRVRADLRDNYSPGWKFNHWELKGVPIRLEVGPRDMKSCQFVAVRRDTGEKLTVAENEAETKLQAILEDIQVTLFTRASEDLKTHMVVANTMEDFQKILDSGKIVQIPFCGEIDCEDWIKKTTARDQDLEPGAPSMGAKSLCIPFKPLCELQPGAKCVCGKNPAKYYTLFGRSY
# Protocol: B) [^3H]-HFol binding was assayed as described above in the presence of indicated concentrations of proline. […] IMR90 lung fibroblasts were treated with a siRNAs directed against EPRS (Dharmacon) or a control siRNA mixture for 48 hours, and then treated with HF for 2 hours (pGCN2) and examined for EPRS protein levels, GCN2 total protein and phospho-GCN2 by Western blot. D) EPRS depleted IMR90 cells were compared to control cells with respect to HF induction of the AAR marker CHOP by Q-PCR. Equal concentrations of total cellular protein were loaded in each Western blot lane. CHOP expression was standardized to expression of phosphoglycerate kinase 1 (PGK1) and glyceraldehyde-3-phosphate-dehydrogenase (GAPDH). Data shown are representative of three separate experiments.
# Prolyl sulfamoyl adenosine (ProSAd) or alanyl sulfamoyl adenosine (AlaSAd), analogs of the corresponding aminoacyl adenylate, were coincubated with [^3H]-HFol as in FIG. 2. […] Binding of [^3H]-HFol was assayed as in FIG. 3, except that the nucleotide type and concentration was varied as indicated.
# To examine HF binding to ProRS, ^3H HFol was synthesized by American Radiochemicals (St. Louis) by reduction of MAZ1310 (3) at the ketone with NaB^3H4, followed by removal of the Boc protecting group with 10% trifluoroacetic acid in dichloromethane, and HPLC purification of the ^3H HFol. 100 nM ^3H HFol was incubated with ProRS immobilized on Ni-NTA beads (Pierce) in 50 mM Tris pH 7.5, 5 mM MgCl2, 20 mM Imidazole, 1 mM DTT, 10% glycerol, and nucleotides, proline, or HF derivatives at room temperature for 10 minutes as indicated. After incubation, beads were washed twice with ice-cold wash buffer (50 mM Tris 7.5; 20 mM Imidazole; 1 mM DTT, 20% glycerol). ^3H HFol bound after washing was measured by liquid scintillation counting. Ni-NTA beads incubated with E. coli extracts lacking tagged ProRS were used as a background reference in all experiments.
# [2] = system: mouse embryo fibroblasts (MEFs); assay: HF and proline effects on mouse embryo fibroblasts (gene expression, ECM protein production, protein synthesis); type: cell-based
# Protocol: A) Primary murine CD4^+ CD25^− T cells were activated through the T-cell receptor in Th17 polarizing conditions (Sundrud et al. Science 324:1334-8 (2009)) in the presence of either 10 nM MAZ1310 or HF and the following amino acid supplements: 10× concentration of essential (EAA) or non-essential (NEAA) amino acids mixtures (Biowhittaker or Invitrogen, respectively), or 10× concentrations (1 mM) of indicated individual amino acids. Data are presented as mean percentage of Th17 (IL-17+ IFNg−) cells +/−SD from triplicate wells. B) Th17 differentiation was assayed as described above, in the absence or presence of HF or borrelidin, with or without 1 mM threonine or proline supplementation. C) MEFs were treated with or without HF (50 nM) and/or proline (2 mM) for 4 hours (CHOP, S100A4) or 24 hours (ColIA1, Col1A2). mRNA expression was normalized to expression of TBP and is shown relative to untreated control. […] Confidence intervals (p-value) for the effect of HF alone versus HF+Pro were determined using a two-tailed Student's t test. Data are representative of two separate experiments. D) Cells were pre-incubated for 24 hours with HF and proline as indicated, and secretion of Type I procollagen was measured after 24 hours in conditioned medium of cells plated by Western blot and quantitated using Image J software (top panel). Total protein synthesis was measured as TCA-precipitable ^35S in a scintillation counter (bottom panel).
# MEFs were incubated for 4 hours in HF with or without 2 mM proline, to measure new collagen production in conditioned medium. Cells were washed into fresh DMEM/0.2% FBS, and proline or HF re-added, and either conditioned medium (for Type I procollagen) or total cell lysate (for fibronectin, c-actin) and were harvested after 24 hours. Triplicate plates of cells for each condition were treated, harvested, and blotted in parallel. Protein levels were assayed by Western blot, detected using chemiluminescence, and film exposure was quantitated using Image J software.
# For assays of HF and proline effects on fibroblasts, mouse embryo fibroblasts were grown in 10% FCS/DMEM. For studies of TGFβ signaling, ^35S methionine incorporation into total protein, and collagen production, cells were shifted into 0.2% FCS/DMEM 24 hours before the addition of HF or proline. For examination of protein expression and phosphorylation, cells were lysed in RIPA with 5 mM EDTA, 1× PhosStop (Roche), and 1× Complete protease inhibitor mix (Roche), and assayed by Western blot as described above. For analysis of gene expression, cells were lysed in Trizol (Invitrogen) and gene expression quantitated by quantitative RT-PCR using the Roche UPR Light-Cycler system.
# [3] = system: Th17 cell differentiation (primary murine CD4+ CD25- T cells); details: from PCT/US08/09774; read-out: 50% inhibition of Th17 cell development; cited from earlier work
# [4] = system: CD4+ T cell, CD8+ T cell, and B220+ B cell activation; details: from PCT/US08/09774; cited from earlier work
# [5] = de Jonge et al. 2006; cited from earlier work
# [6] = target: T2, prolyl tRNA synthetase domain of human EPRS (ProRS) (Homo sapiens, UniProt P07814); assay: biochemical
# T2 sequence (P07814 998-1512 limits assumed): T1 sequence (P07814 998-1512 limits assumed)
# Protocol: Activity of the Prolyl tRNA synthetase domain of EPRS (ProRS) was measured as ^3H Pro incorporation into the charged tRNA pool. […] Purified enzyme was visualized as a single band by Laemmli gel electrophoresis/Coomassie staining.
# Purified enzyme was visualized as a single band by Laemmli gel electrophoresis/Coomassie staining. […] In preliminary experiments, the assay was established to be linear over the time (6 min) and conditions used (30 degrees, 2 mM ATP, 1 μg/μl total tRNA purified from rabbit liver).
# For the rapid, quantitative isolation of aminoacylated tRNA^pro from synthetase reaction mixtures, reactions were stopped with 100 μl of ice cold 20 mM MOPS pH6.2, 200 mM NaCl, 10 mM EDTA, 30% Glycerol and placed on ice. Samples were added to 15 μl of packed Mono Q HP beads (GE Healthcare) equilibrated in the same buffer. Samples were incubated with beads on ice for 10 min, beads were pelleted by 5 sec centrifugation in a tabletop microfuge and washed 3× 1 ml of wash buffer (20 mM MOPS pH6.2, 50 mM NaCl), and recovered pellets counted in a liquid scintillation counter. Background binding of ^3H Pro to beads (using reaction mix with either no enzyme added or no tRNA added) was negligible (20-40 cpm).
smiles,measurement,setting,value
"O=C(C[C@H]1NCCC[C@@H]1O)Cn1cnc2cc(Br)c(Cl)cc2c1=O (racemic) [HF, 7-bromo-6-chloro-3-[3-(3-hydroxy-2-piperidinyl)-2-oxopropyl]-4(3H)-quinazolinone]",competition of [3H]-HFol binding to ProRS,[1],competed
same,production of secreted Type I procollagen and fibronectin,"[2]; 24 hours treatment, FIG. 6D",dramatically inhibited
same,"mRNA levels of Col1A1, Col1A2, and S100A4","[2]; MEFs, HF 50 nM, 4 or 24 hours, FIG. 6C",inhibits
same,expression of mRNA encoding CHOP,"[2]; MEFs, HF 50 nM, 4 hours, FIG. 6C",stimulated
same,35S-methionine incorporation into total protein,"[2]; same doses as ECM protein inhibition, FIG. 6D",did not significantly change
same,IC50,[3],~3 nM
same,"concentration that generally inhibits CD4+ T cell, CD8+ T cell, and B220+ B cell activation",[4],20 to 40 nM
same,"toxicity in humans (nausea, vomiting, fatigue, possibly bleeding complications)",[5],some toxicity
same,Ki,[6],18.3 nM

# Source: patent US10155742B2, “Halofuginol derivatives and their use in cosmetic and pharmaceutical compositions” (President and Fellows of Harvard College, priority 2012, dated 2018)
